{
  "source": "patent US4279912A",
  "about": "“Novel imidazoquinolines” (Roussel Uclaf, priority 1977, dated 1981)",
  "tested_on": "Passive cutaneous anaphylaxis (PCA)",
  "test": "Passive cutaneous anaphylaxis (PCA) in rats",
  "type": "in vivo",
  "details": "Rattus norvegicus",
  "description": "Cutaneous anaphylaxis can be induced in rats by intradermal (ID) sensitization with antiserum followed three days later by systemic challenge with antigen. Evans blue dye injected with the antigen is used as a marker to assess the severity of the local response. Anti-allergic drugs inhibit this reaction. This method has been described by OVARY (1962) \"[…] Cutaneous Anaphylaxis in Allergology\" Page 358-367 Ed. Brown: Pergamon Press:-male rats weighing 180-220 grams are used in groups of seven. […] 1. Wash 120 grams of Al(OH)3 gel in 140 ml of saline (use of a macerater facilitates mixing). 2. Centrifuge at 3,000 r.p.m. for about 10 minutes. 3. Resuspend the precipitate with 300 ml of albumen egg powder (1.3 mg/ml) in saline and allow to stand for 30 minutes. 4. Centrifuge at 3,000 r.p.m. for 10 minutes. 5. Weigh the wet precipitate and to each gram weight add 1 ml of saline. Store in refrigerator (Quantity sufficient for 60 rats for a 3 day sensitization program). […] 1 ml of the alum precipitated ovalbumen was injected subcutaneously into rats weighing 180-220 grams on days 0,2,4. The rats were bled on day 14 either by cardiac puncture or via the dorsal abdominal aorta. Equal quantities of serum from each animal were pooled and thoroughly mixed and 2 ml aliquots were stored at -20° C. in plastic tubes. Serum Dilution for PCA The antiserum for sensitization was diluted so that an ID injection of 0.1 ml into control animals would give an average score of a single spot of between 2.0-3.5 using a 4 point scoring system. Method (A) SENSITIZATION: The rats were anaesthetized with Nembutal (40-60 mg/kg i.p.) and were then sensitized by four ID injections (0.1 ml each) on their shaved backs. The animals were then left for a period of three days to develop sensitization. (B) […]: The sensitized rats were dosed orally or intraveneously with the drug immediately prior to intraveneous challenge via the superficial penile vein with 1 ml of an antigen/Evans blue mixture (1 mg albumen egg powder in 0.5 ml saline plus 0.5 ml of 1% Evans blue). The injections were speeded up by using an automatic 1 ml self-filling glass syringe. The \"challenged\" rats were killed after 30 minutes, (usually pithed) and their skin on the dorsal surface was removed. The degree and area of blueing, proportional to the anaphylactic reaction was assessed on a four point scoring system. Calculations 1. Total scores for sites 1,2,3 and 4=X 2. Mean value of X for each group=X 3. X t=X for test group X c=X for control group [formula] 5. […] ED50 values for the compounds tested in the passive cutaneous anaphylaxis screen (in rats) are as follows: […]",
  "key": {"[1]": {"details": "read-out: ED50 (dose of drug giving 50% inhibition), i.v., intravenous dosing immediately prior to antigen/Evans blue challenge"}, "[2]": {"details": "read-out: ED50 (dose of drug giving 50% inhibition), p.o., oral dosing immediately prior to antigen/Evans blue challenge"}},
  "note": "Structures can show the parent of a compound that is named as a salt. Where two headings read alike, the source gives them in different places.",
  "data": [
    {"smiles": "O=C(OCCN1CCCCC1)c1cn2c(ccc3ccccc32)n1", "note": "[Example 35, 2-piperidinoethyl imidazo-[1,2-a]-quinoline-2-carboxylate]", "values": [
      {"measurement": "ED50", "setting": "[1]", "value": 0.42, "unit": "mg/kg"}
    ]},
    {"smiles": "O=C(O)c1cn2c(cc(Cl)c3ccc(Br)cc32)n1", "note": "[Example 32, 8-bromo-5-chloroimidazo-[1,2-a]-quinoline-2-carboxylic acid]", "values": [
      {"measurement": "ED50", "setting": "[1]", "value": 0.025, "unit": "mg/kg"},
      {"measurement": "ED50", "setting": "[2]", "value": 0.08, "unit": "mg/kg"}
    ]},
    {"smiles": "CCOC(=O)c1cn2c(cc(Cl)c3ccccc32)n1", "note": "[Example 5, ethyl 5-chloroimidazo-[1,2-a]-quinoline-2-carboxylate]", "values": [
      {"measurement": "ED50", "setting": "[2]", "value": 0.096, "unit": "mg/kg"}
    ]},
    {"smiles": "O=C(O)c1cn2c(cc(Cl)c3ccc(Cl)cc32)n1", "note": "[Example 22, 5,8-dichloroimidazo-[1,2-a]-quinoline-2-carboxylic acid]", "values": [
      {"measurement": "ED50", "setting": "[1]", "value": 0.023, "unit": "mg/kg"},
      {"measurement": "ED50", "setting": "[2]", "value": 0.033, "unit": "mg/kg"}
    ]},
    {"smiles": "COc1ccc2c(Cl)cc3nc(C(=O)O)cn3c2c1.Cl", "note": "[Example 16, 5-chloro-8-methoxyimidazo-[1,2-a]-quinoline-2-carboxylic acid hydrochloride]", "values": [
      {"measurement": "ED50", "setting": "[1]", "value": 0.016, "unit": "mg/kg"},
      {"measurement": "ED50", "setting": "[2]", "value": 0.27, "unit": "mg/kg"}
    ]},
    {"smiles": "CC(C)Oc1cc2nc(C(=O)O)cn2c2cc(Cl)ccc12", "note": "[Example 18, 8-chloro-5-isopropoxyimidazo-[1,2-a]-quinoline-2-carboxylic acid]", "values": [
      {"measurement": "ED50", "setting": "[1]", "value": 0.027, "unit": "mg/kg"},
      {"measurement": "ED50", "setting": "[2]", "value": 0.34, "unit": "mg/kg"}
    ]},
    {"smiles": "COc1ccc2ccc3nc(C(=O)O)cn3c2c1", "note": "[Example 20, 8-methoxyimidazo-[1,2-a]-quinoline-2-carboxylic acid]", "values": [
      {"measurement": "ED50", "setting": "[1]", "value": 0.038, "unit": "mg/kg"},
      {"measurement": "ED50", "setting": "[2]", "value": 0.14, "unit": "mg/kg"}
    ]},
    {"smiles": "COc1ccc2c(OC)cc3nc(C(=O)O)cn3c2c1", "note": "[Example 12, 5,8-dimethoxyimidazo-[1,2-a]-quinoline-2-carboxylic acid]", "values": [
      {"measurement": "ED50", "setting": "[1]", "value": 1.22, "unit": "mg/kg"}
    ]},
    {"smiles": "O=C(O)c1cn2c(ccc3ccccc32)n1", "note": "[Example 2, imidazo-[1,2-a]-quinoline-2-carboxylic acid hydrochloride]", "values": [
      {"measurement": "ED50", "setting": "[1]", "value": 0.29, "unit": "mg/kg"},
      {"measurement": "ED50", "setting": "[2]", "value": 0.63, "unit": "mg/kg"}
    ]},
    {"smiles": "O=C(O)c1cn2c(cc(Cl)c3ccccc32)n1", "note": "[Example 6, 5-chloroimidazo-[1,2-a]-quinoline-2-carboxylic acid hydrochloride]", "values": [
      {"measurement": "ED50", "setting": "[1]", "value": 0.0075, "unit": "mg/kg"},
      {"measurement": "ED50", "setting": "[2]", "value": 0.47, "unit": "mg/kg"}
    ]},
    {"smiles": "O=C(O)c1cn2c(ccc3ccc(Cl)cc32)n1", "note": "[Example 10, sodium 8-chloroimidazo-[1,2-a]-quinoline-2-carboxylate]", "values": [
      {"measurement": "ED50", "setting": "[1]", "value": 0.069, "unit": "mg/kg"},
      {"measurement": "ED50", "setting": "[2]", "value": 0.11, "unit": "mg/kg"}
    ]},
    {"smiles": "COc1cc2nc(C(=O)O)cn2c2ccccc12", "note": "[Example 4, THAM salt of 5-methoxyimidazo-[1,2-a]-quinoline-2-carboxylic acid]", "values": [
      {"measurement": "ED50", "setting": "[1]", "value": 0.57, "unit": "mg/kg"},
      {"measurement": "ED50", "setting": "[2]", "value": 3.74, "unit": "mg/kg"}
    ]},
    {"smiles": "COc1ccc2c(ccc3nc(C(=O)O)cn32)c1", "note": "[Example 28, 7-methoxyimidazo-[1,2-a]-quinoline-2-carboxylic acid]", "values": [
      {"measurement": "ED50", "setting": "[1]", "value": 0.03, "unit": "mg/kg"}
    ]},
    {"smiles": "COc1ccc2c(OC(C)C)cc3nc(C(=O)O)cn3c2c1", "note": "[Example 14, 8-methoxy-5-isopropoxyimidazo-[1,2-a]-quinoline-2-carboxylic acid]", "values": [
      {"measurement": "ED50", "setting": "[1]", "value": 0.091, "unit": "mg/kg"},
      {"measurement": "ED50", "setting": "[2]", "value": "~10", "unit": "mg/kg"}
    ]},
    {"smiles": "O=C(O)c1cn2c(cc(Br)c3ccccc32)n1", "note": "[Example 26, 5-bromoimidazo-[1,2-a]-quinoline-2-carboxylic acid]", "values": [
      {"measurement": "ED50", "setting": "[1]", "value": 0.046, "unit": "mg/kg"},
      {"measurement": "ED50", "setting": "[2]", "value": 0.14, "unit": "mg/kg"}
    ]},
    {"smiles": "CC(C)Oc1cc2nc(C(=O)O)cn2c2ccccc12", "note": "[Example 8, 5-isopropoxyimidazo-[1,2-a]-quinoline-2-carboxylic acid hydrochloride]", "values": [
      {"measurement": "ED50", "setting": "[1]", "value": 0.12, "unit": "mg/kg"},
      {"measurement": "ED50", "setting": "[2]", "value": 1.13, "unit": "mg/kg"}
    ]},
    {"smiles": "CCOC(=O)c1cn2c(ccc3ccc(Cl)cc32)n1", "note": "[Example 9, ethyl 8-chloroimidazo-[1,2-a]-quinoline-2-carboxylate]", "values": [
      {"measurement": "ED50", "setting": "[2]", "value": 1.72, "unit": "mg/kg"}
    ]},
    {"smiles": "O.O=C(O)c1cn2c(ccc3cc(Cl)ccc32)n1", "note": "[Example 24, 7-chloroimidazo-[1,2-a]-quinoline-2-carboxylic acid monohydrate]", "values": [
      {"measurement": "ED50", "setting": "[1]", "value": 0.29, "unit": "mg/kg"}
    ]}
  ]
}
